# Results reported in the supplement of paper PMC10307832.
# Experiments:
# Assay in all cases: relative viability (nuclei count vs DMSO), 5 days (fraction); higher = more cells survive
# [1] = compound: Cc1ccc2nc(NCCN)c3ncc(C)n3c2c1 + CC1(C)CCC(c2ccc(Cl)cc2)=C(CN2CCN(c3ccc(C(=O)NS(=O)(=O)c4ccc(N[C@H](CCN5CCOCC5)CSc5ccccc5)c(S(=O)(=O)C(F)(F)F)c4)cc3)CC2)C1 [Navitoclax] (partner 0.5 µM)
# In short: (§1)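 Each reported value is a median over duplicate plates. It expresses relative viability: treated-well nuclei count divided by vehicle-well nuclei count. Lung cancer cell lines in 1536-well plates were dosed by pin tool a day after seeding, alone with one drug or with a fixed anchor-drug dose plus five library-drug doses (not always all listed) in √10 steps, and nuclei were counted after 5 days.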
# [2] = compound: Cc1ccc2nc(NCCN)c3ncc(C)n3c2c1 + CS(=O)(=O)CCNCc1ccc(-c2ccc3ncnc(Nc4ccc(OCc5cccc(F)c5)c(Cl)c4)c3c2)o1 [Lapatinib] (partner 2 µM)
# In short: as §1
# Salubrinal + Luminespib = compound: O=C(/C=C/c1ccccc1)NC(NC(=S)Nc1cccc2cccnc12)C(Cl)(Cl)Cl [Salubrinal] + CCNC(=O)c1noc(-c2cc(C(C)C)c(O)cc2O)c1-c1ccc(CN2CCOCC2)cc1 [Luminespib] (partner 0.01 µM)
# In short: as §1
# Salubrinal + Dasatinib = compound: O=C(/C=C/c1ccccc1)NC(NC(=S)Nc1cccc2cccnc12)C(Cl)(Cl)Cl [Salubrinal] + Cc1nc(Nc2ncc(C(=O)Nc3c(C)cccc3Cl)s2)cc(N2CCN(CCO)CC2)n1 [Dasatinib] (partner 0.075 µM)
# In short: as §1
Cell Line,relative viability ([1]; first compound 0.04 µM),relative viability ([1]; first compound 0.1265 µM),relative viability ([1]; first compound 0.4 µM),relative viability ([1]; first compound 1.265 µM),relative viability ([1]; first compound 4 µM),relative viability ([2]; first compound 0.04 µM),relative viability ([2]; first compound 0.1265 µM),relative viability ([2]; first compound 0.4 µM),relative viability ([2]; first compound 1.265 µM),relative viability ([2]; first compound 4 µM),relative viability (Salubrinal + Luminespib; first compound 0.08 µM),relative viability (Salubrinal + Luminespib; first compound 0.253 µM),relative viability (Salubrinal + Luminespib; first compound 0.8 µM),relative viability (Salubrinal + Luminespib; first compound 2.53 µM),relative viability (Salubrinal + Luminespib; first compound 8 µM),relative viability (Salubrinal + Dasatinib; first compound 0.08 µM),relative viability (Salubrinal + Dasatinib; first compound 0.253 µM),relative viability (Salubrinal + Dasatinib; first compound 0.8 µM),relative viability (Salubrinal + Dasatinib; first compound 2.53 µM),relative viability (Salubrinal + Dasatinib; first compound 8 µM)
NCI-H647,1.08,1.06,1.17,0.804,0.908,1.08,1.02,0.948,1.13,0.707,0.208,0.243,0.27,0.356,0.154,0.168,0.203,0.235,0.243,0.137
NCI-H1792,0.642,0.658,0.645,0.619,0.594,0.944,0.904,0.837,0.857,0.81,0.574,–,0.472,0.624,0.587,0.822,–,0.723,0.81,0.702
SK-LU-1,1.02,0.898,0.812,0.769,0.778,1.06,0.951,0.889,0.948,0.852,0.182,0.201,0.206,0.214,0.198,0.188,0.22,0.181,0.172,0.176
NCI-H1650,1.3,1,1.12,1.25,0.934,0.887,0.764,0.434,0.836,0.65,0.212,0.213,0.194,0.19,0.216,0.366,0.35,0.321,0.357,0.294
NCI-H2009,1.19,1.08,1.17,1.17,1.09,1.03,0.958,0.88,0.928,0.836,1.09,0.966,0.984,0.995,0.878,0.288,0.287,0.304,0.278,0.235
LOU-NH91,0.684,0.687,0.724,0.672,0.65,0.784,0.846,0.782,0.777,0.766,0.304,0.381,0.358,0.305,0.386,0.565,0.481,0.672,0.56,0.499
NCI-H2405,0.849,0.905,0.936,0.718,0.725,1.06,1.06,1.06,1.08,0.835,0.591,0.865,0.62,0.612,0.668,0.252,0.223,0.224,0.2,0.204
LCLC-97TM1,0.57,0.444,0.39,0.392,0.487,1.06,1.42,0.78,1.33,1,0.894,0.798,0.823,0.849,0.842,1.02,0.731,1.01,0.969,0.782
NCI-H596,0.945,0.896,0.916,0.678,1.11,1.12,1.11,1.31,0.962,1.05,0.971,0.775,0.972,1.2,0.92,0.633,0.509,0.569,0.633,0.56
NCI-H727,0.379,0.475,0.41,0.238,0.413,1.22,0.887,1.19,0.766,0.762,0.407,0.337,0.337,0.312,0.274,0.311,0.38,0.341,0.409,0.375
H3255,0.666,0.479,0.638,0.535,0.469,0.275,0.268,0.398,0.252,0.283,0.939,0.948,1.14,0.847,0.786,0.291,0.366,0.459,0.35,0.356
NCI-H2170,0.687,0.659,0.59,0.601,0.598,0.307,0.263,0.249,0.302,0.26,0.854,0.686,0.642,0.643,0.714,0.764,0.526,0.71,0.57,0.534
NCI-H1437,1.08,1.03,1.12,1.07,0.992,0.817,0.794,0.777,0.819,0.733,1.21,0.999,1.19,1.08,1.12,0.406,0.42,0.487,0.507,0.243
LU99A,0.784,0.822,0.761,0.883,0.782,1,0.944,1.06,0.957,0.986,0.234,0.264,0.293,0.243,0.248,0.537,0.597,0.688,0.593,0.416
SK-MES-1,1.26,1.33,1.14,1.13,1.17,0.503,0.512,0.493,0.447,0.472,0.86,0.932,0.861,0.613,0.364,0.428,0.32,0.408,0.371,0.271
HCC-827,1.03,0.969,1.03,1.05,0.984,0.21,0.207,0.191,0.195,0.209,0.694,0.411,0.425,0.739,0.551,0.357,0.251,0.27,0.326,0.393
LK-2,0.831,0.65,0.886,0.77,0.789,0.961,0.879,0.823,0.748,0.761,0.219,0.183,0.214,0.211,0.166,0.378,0.302,0.296,0.312,0.342
BEN,0.0603,0.0647,0.0665,0.0492,0.0759,0.894,0.6,0.827,0.77,0.709,0.53,0.323,0.425,0.354,0.265,0.34,0.406,0.397,0.313,0.308
NCI-H23,0.867,0.904,0.822,0.791,0.814,1.09,1.12,1.19,1.15,0.937,0.213,0.227,0.196,0.217,0.216,0.881,0.942,0.696,0.78,0.925
NCI-H1395,1.27,1.13,1.31,1,1.1,0.936,0.917,0.958,0.994,0.803,0.761,0.701,0.774,0.729,0.644,0.409,0.443,0.472,0.4,0.392
201T,1.25,1.22,1.14,1.17,1.23,1.07,1.03,0.989,1.17,0.98,1.06,1.05,1.11,1.09,1.07,0.56,0.596,0.669,0.602,0.573
NCI-H1793,0.467,0.417,0.418,0.477,0.476,0.942,0.697,0.734,0.581,0.737,0.231,0.168,0.206,0.162,0.244,0.448,0.421,0.359,0.385,0.398
NCI-H460,1.27,1.08,1.1,1.22,1.06,0.999,1,0.886,0.898,0.745,0.0402,0.0238,0.031,0.0302,0.0364,0.641,0.56,0.644,0.565,0.422
HCC-15,0.702,0.732,0.684,0.677,0.675,0.888,0.811,0.776,0.75,0.737,0.363,0.294,0.245,0.468,0.206,0.723,0.586,0.701,0.627,0.498
EPLC-272H,1.01,1.09,1.17,1.04,0.93,1.04,0.981,0.777,0.829,0.977,0.382,0.547,0.156,0.275,0.164,0.41,0.324,0.357,0.383,0.294
